Data set [1] can be described thus: Transport experiment in the in vitro BBB cell model. It is filed as in vitro ADME. The following applies: Sprague-Dawley, rat, apical to basolateral, mean ± SD (n = 3-4), read-out: Papp × 10^−6; for Papp at 90 min, 100 μM: C0 100 μM; for Papp at 90 min, 20 μM: C0 20 μM. How it is done: (§1) Rat brain microvascular endothelial cells (BMECs) were separated from the cerebral cortex of 18-day-old male Sprague-Dawley rats as described previously ([Biegel et al., 1995]). Briefly, the cerebral cortical tissues were dissected from meninges after the rats were sacrificed, then the tissues were homogenated in physiological buffer solution (pH 7.4). After centrifugation, the pellets were collected, and the microvascular segments were then digested with 0.1% collagenase II at 37°C for 1 h. […] The second passage was used for co-culture of BBB cellular models.
Astrocytes were separated from the cerebral cortex of newborn Sprague-Dawley rats (1–2 days) as described previously ([Jeliazkova-Mecheva and Bobilya, 2003]). The brain tissues (removal of the meninges and blood vessel) were minced and mechanical homogenized and then digested with 0.25% trypsin-EDTA at 37°C for 10 min.
The in vitro BBB cell model was constructed in the Transwell 24well plate ([…], Millipore, USA). Before the experiment, the transwell filters were coated with matrigel matrix. The isolated rat astroglias were seeded onto one side of polycarbonate inserts (5 × 10^4 cells/insert). After 3 to 5 days, the rat BMECs were seeded at a density of 1.5 × 10^5 cells/insert onto the opposite side of the inserts to produce rat BMEC monolayers. The in vitro BBB cell model was formed 3 to 4 days. Trans-epithelial electrical resistance (TEER) measurements were performed everyday after the co-cultures formed until the TEER value increased to […] ([Yang et al., 2014]) ( Figure 2C ).
The transport experiments were performed by adding 400 μl HBSS containing the compounds to the apical side (AP), with 600μl HBSS to the basolateral side (BL) at the same time. Samples (60 μl) were collected from the BL chamber at the time points of 15, 30, 60, 90, 120, and 180 min, and the corresponding volume of HBSS buffer was immediately added into the BL chamber. The samples were precipitated by methanol, and the concentrations of the compounds in the samples were determined by high-performance liquid chromatography (HPLC). The HPLC conditions were as follows: Agilent TC-C18 column (250 × 4.6 mm; 5 μm), methanol 1% ethanoic acid mobile phase (from 10:90 to 90:10, v/v), with gradient elution at a flow rate of 1.0 ml/min. The detection wavelength was 275 nm for these compounds. The run time was 20 min. The apparent permeability coefficients (P app) were calculated from the following formula: P app = (∆Q/∆t)/(A × C 0), where ∆Q/∆t is the linear appearance rate of the compound on the BL side (μmol/s), A is the surface area of the cell monolayer (cm^2), and C 0 is the initial concentration of the drug on the AP side (μmol/L).

Another data set concerns rat C6 glioma cells. Put plainly: Anti-glioma MTT assay, C6 cells. The format is cell-based. The conditions noted are these: for Anti-proliferation effect on C6 cells (first screening): 10, 20, 100 μM, compared with D1, P < 0.05; for IC50: Rattus norvegicus, C6 cells. How it is done:
(§2) The anti-glioma effects of these compounds were evaluated by MTT assay in rat C6 glioma cells, human glioma U87 and U251 cells, and BMECs cells. Brieﬂy, cells were seeded at the density of 4,000 cells/well in 96-well plates overnight. For the first screening, the cells were incubated with 10, 20, 100 μM compounds for 48 h. Then cell viabilities were detected by MTT assay as described above. For the second screening, the cells were incubated with 6.25-, 12.5-, 25-, 50-, and 100μM compounds for 48 and 96 h, and then detected by MTT assay. The OD of each well was measured at 490 nm on an ELISA microplate reader. The inhibitory rates and IC50 values were calculated.

Another data set relates to rat BMECs. Put plainly: Cytotoxicity of apocynin derivatives on rat BMECs (MTT, 24 h). The conditions noted are these: 100 μM, vs control, P < 0.05. It is filed as cell-based. How it is done:
as §1
Rat BMECs were collected and seeded into 96-well culture plates at a density of 7.5 × 10^3 cells/well overnight. The cells were treated with different concentrations of the compounds (10, 20, and 100 μM) for 24 h, respectively. Then, 20-μl MTT (5 mg/ml) in fresh medium was added to each well and incubated for another 4 h. Finally, 150μl dimethyl sulfoxide (DMSO) was added to dissolve formazan crystals, and the absorbance was detected at 490 nm in a multiwall-plate reader (BioTek ELx800).

Another data set deals with BMECs. Put plainly: MTT assay on normal BMECs (48 and 96 h). It is filed as cell-based. The conditions noted are these: Rattus norvegicus. How it is done:
as §1, §2
A general note: Formazan colour is commonly taken as a measure of viable cells.

Another data set relates to human glioma U87 cells. Put plainly: Anti-glioma MTT assay, U87 cells. The following applies: for Anti-proliferation effect on U87 cells (first screening): 10, 20, 100 μM, compared with D1, P < 0.05; for IC50: Homo sapiens, U-87 MG, U87 cells. It is filed as cell-based. How it is done: as §2
The test system of another data set is human glioma U251 cells. The experiment in a line: Anti-glioma MTT assay, U251 cells. It is filed as cell-based. How it is done: as §2
In the next data set the test system is C6 glioma. The experiment in a line: Rat C6 glioma model. The format is in vivo. The conditions noted are these: C6 glioma-bearing Wistar rats, 25 mg/kg i.p. daily; for Tumor volume vs control group: MRI 13 days after treatment. How it is done: C6 glioma model was established as previously reported ([Xu etal., 2016]). The C6 glioma cells in the logarithmic growth phase were collected for implantation. Male Wistar rats (male, 160–180g) were anesthetized with 10% chloral hydrate, and then a hole (1 mm diameter) was drilled in the cranial bone. C6 cells in PBS were injected slowly (3 × 10^6 cells/rat).
Tumors in the brains of the rats were detected by Bruker 7.0 T Micro-MRI using a T2W RARE sequence (TR/TE 3000/15 ms; slice thickness, 1.0 mm; flip angle, 180°; Matrix 256×256; slice gap, 1.0 mm; FOV, 33×33 mm; time, 4.8 min) 7 days after implantation. Tumor volumes (V) were calculated by the following formula: V = (4/3 × π × LHW)/8, where L is the maximum anteroposterior diameter, H and W are the height and width. Then the rats were sacrificed, and the brain tissues were fixed with formalin, embedded in paraffin, sectioned, and subjected to hematoxylin/eosin (HE) staining and immunohistochemical staining for glial fibrillary acidic protein (GFAP) as previously described ([Xu et al., 2016]). The sections from each animal were analyzed by a pathologist. Only rats with maximum intracerebral tumor diameter of >5.0 mm were used.
After the successful implantation, the rats were randomly divided into […] and treated with different drugs by intraperitoneal injection daily: control group (PBS, n = 6), TMZ group (25 mg/kg, n = 6), D14 group (25 mg/kg, n = 6), and D31 group (25 mg/kg, n = 6). The body weights were recorded everyday after administration. Thirteen days after treatment, brain tumors in the rats were detected by Bruker 7.0 T Micro-MRI as described above. Tumor volumes were calculated and recorded as above.

The conditions of data set [2]: cited from earlier work; for BBB penetration rate relative to morphine: ref Oldendorf et al., 1972.

The text below walks through data of publication PMC6733959, “Synthesis and Evaluations of Novel Apocynin Derivatives as Anti-Glioma Agents” (Frontiers in Pharmacology, 2019).

The structures appear in SMILES notation.

What is called Papp is the rate of passage across a membrane or cell layer, normalised by area and donor concentration. Usually IC50 stands for the point on the concentration scale where inhibition reaches its midpoint. Low readings indicate greater potency, high ones weaker potency.

As for `COc1cc(C(=O)CNc2ccccc2)ccc1OCc1ccccc1` [Compound D5, 1-(4-(Benzyloxy)-3-Methoxyphenyl)-2-(Phenylamino)Ethan-1-One], the Papp at 90 min, 100 μM in data set [1] came out at 10.3 ± 0.31 ×10⁻⁶ cm/s.
Consider `COc1cc(C(=O)CNc2ccc(F)cc2)ccc1OCc1ccccc1` [Compound D6, 1-(4-(Benzyloxy)-3-Methoxyphenyl)-2-((4-Fluorophenyl)Amino) Ethan-1-One], for which, in data set [1], the Papp at 90 min, 100 μM was determined as 8.68 ± 0.45 ×10⁻⁶ cm/s.
For `COc1cc(C(=O)CNc2ccccc2)ccc1O` [Compound D13, 1-(4-Hydroxy-3-Methoxyphenyl)-2-(Phenylamino)Ethan-1-One], in the data set on rat C6 glioma cells (48 h), the “Anti-proliferation effect on C6 cells (first screening)” value (shortened to “Anti-proliferation effect on C6 cells”) is “significant anti-proliferation effects”. The Papp at 90 min, 20 μM in data set [1] was 5.41 ± 0.52 ×10⁻⁶ cm/s. Moreover, the “Effect on cell viability of rat BMECs” value with rat BMECs is on record as “significantly inhibit the cell viability”.
As to `COc1cc(C(=O)CNc2ccc(F)cc2)ccc1O` [Compound D14, 2-((4-Fluorophenyl)amino)-1-(4-Hydroxy-3-Methoxyphenyl)Ethan-1-One], in the data set with rat C6 glioma cells (48 h), the “Anti-proliferation effect on C6 cells” value is on record as “significant anti-proliferation effects”. For the same compound, the IC50 with rat C6 glioma cells (48 h) is 37.2 µM; in the data set with rat C6 glioma cells (96 h) it was 22.9 µM; with BMECs (48 h), more than 100 µM; in the data set on BMECs (96 h), 78.2 µM; in the data set on human glioma U87 cells (48 h), 61.6 µM; with human glioma U87 cells (96 h), 60.1 µM. Moreover, the IC50 came to 71.6 µM in the data set with human glioma U251 cells (U-251, 48 h) and 34.5 µM in the data set on human glioma U251 cells (U-251, 96 h). The apparent permeability (Papp) at 90 min, 20 μM in data set [1] was found to be 4.24 ± 1.3 ×10⁻⁶ cm/s. For the same compound, the “Anti-proliferation effect on U87 cells (first screening)” value with human glioma U87 cells (48 h) is “significant anti-proliferation effects”. Besides, in the data set on rat BMECs, the “Effect on cell viability of rat BMECs” value is “significantly inhibit the cell viability”. Further, the “Body weight changes vs control group” value in the data set on C6 glioma is recorded as “no obvious body weight changes”. The “Tumor volume vs control group” value in the data set with C6 glioma is on record as “no obvious growth inhibitory effects”.
Turning to `COc1cc(NCC(=O)c2ccc(O)c(OC)c2)cc(OC)c1` [Compound D16, 2-((3,5-Dimethoxyphenyl)Amino)-1-(4-Hydroxy-3-Methoxyphenyl)Ethan-1-One], the Papp at 90 min, 20 μM in data set [1] was found to be 2.54 ± 0.58 ×10⁻⁶ cm/s. In addition, the “Effect on cell viability of rat BMECs” value with rat BMECs is recorded as “significantly inhibit the cell viability”.
`COc1cc(C(=O)CNc2ccc(F)cc2F)ccc1O` [Compound D21, 2-((2,4-Difluorophenyl)Amino)-1-(4-Hydroxy-3-Methoxyphenyl)Ethan-1-One]: the Papp at 90 min, 100 μM in data set [1] is 6.08 ± 0.65 ×10⁻⁶ cm/s.
Still for that read-out and setting: the same measure for `COc1cc(C(=O)CNc2ccc(Cl)cc2)ccc1O` [Compound D22, 2-((4-Chlorophenyl)Amino)-1-(4-Hydroxy-3-Methoxyphenyl)Ethan-1-One]: 5.42 ± 0.58 ×10⁻⁶ cm/s.
Consider `COc1cc(C(=O)CSCc2ccccc2)ccc1O` [Compound D33, 2-(Benzylthio)-1-(4-Hydroxy-3-Methoxyphenyl)Ethan-1-One], for which, in the data set with rat C6 glioma cells (48 h), the “Anti-proliferation effect on C6 cells” value is on record as “significant anti-proliferation effects”. Further, the Papp at 90 min, 20 μM in data set [1] is 9.58 ± 2.35 ×10⁻⁶ cm/s. In addition, the “Effect on cell viability of rat BMECs” value with rat BMECs is given as “significantly inhibit the cell viability”.
In the same order, the values of `COc1cc(C(=O)CSCc2ccc(F)cc2)ccc1O` [Compound D34, 2-((4-Fluorobenzyl)Thio)-1-(4-Hydroxy-3-Methoxyphenyl)Ethan-1-One] are “significant anti-proliferation effects”, 11.9 ± 1.53 ×10⁻⁶ cm/s and “significantly inhibit the cell viability”.
For `CCC1(c2ccccc2)C(=O)NC(=O)NC1=O` [Phenobarbital, 5-ethyl-5-phenylbarbituric acid], the “BBB penetration rate relative to barbituric acid” value in data set [2] (ref Liu et al., 2007) is given as “increased BBB penetration rate”.
For `Cn1nnc2c(C(N)=O)ncn2c1=O` [TMZ, Temozolomide, reference compound], the “Anti-proliferation effect on C6 cells” value in the data set on rat C6 glioma cells (48 h) is reported as “significant anti-proliferation effects”. Moreover, the IC50 turned out to be 51.1 µM with rat C6 glioma cells (48 h); 36.8 µM in the data set on rat C6 glioma cells (96 h); 94.5 µM with BMECs (48 h); 54.4 µM in the data set with BMECs (96 h); 54.1 µM with human glioma U87 cells (48 h); 28.4 µM in the data set on human glioma U87 cells (96 h). Further, the IC50 in the data set with human glioma U251 cells (U-251, 48 h) came out at 48.1 µM; in the data set with human glioma U251 cells (U-251, 96 h), 15.3 µM. Further, the apparent permeability (Papp) at 90 min, 20 μM in data set [1] is 7.74 ± 0.34 ×10⁻⁶ cm/s. For the same compound, the “Anti-proliferation effect on U87 cells (first screening)” value in the data set with human glioma U87 cells (48 h) is recorded as “significant anti-proliferation effects”. In addition, the “Effect on cell viability of rat BMECs” value in the data set with rat BMECs is listed as “significantly inhibit the cell viability”. In addition, the “Body weight changes vs control group” value in the data set on C6 glioma was “no obvious body weight changes”. The “Tumor volume vs control group” value in the data set with C6 glioma is listed as “significantly decreased”.
In the case of `COc1ccc2c3c1O[C@H]1[C@@H](O)C=C[C@H]4[C@@H](C2)N(C)CC[C@@]341` [codeine], in data set [2], the “BBB penetration rate relative to morphine” value is 10 times.
For `CC(=O)Oc1ccc2c3c1O[C@H]1[C@@H](OC(C)=O)C=C[C@H]4[C@@H](C2)N(C)CC[C@@]341` [heroin, diacetylmorphine], in data set [2], the “BBB penetration rate relative to morphine” value is given as 100 times.
